In patent US12336981B2, “Compounds and compositions for the inhibition of NAMPT” (Valo Health, Inc., priority 2010, dated 2025):
Read-outs that look alike come from different tables or passages of the source.

Legend:
[1] = target: T1, NAMPT (Homo sapiens, UniProt P43490); test: Biochemical inhibition assay: NAMPT enzymatic reaction, NMN quantified by mass spectrometry; settings: read-out: Biochem IC50
T1 construct: His tag; host or cells: E. coli
How it was run: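 Inhibition of E. coli-expressed His-tagged human NAMPT, measured as NMN formation by mass spectrometry after a 30 min room-temperature reaction containing 1 μM NAM, 100 μM PRPP and 2.5 mM ATP.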

[2] = system: A2780 cells; test: In-vitro cell proliferation assay (SRB), A2780 cells; type: cell-based; settings: Homo sapiens, A2780, 72 h, A2780 cells, 72 hours, read-out: A2780 IC50
How it was run: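 Proliferation is assessed by sulforhodamine B staining following a 72-hour incubation with compound dilutions containing 0.1% DMSO.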

T1 sequence (P43490 whole entry): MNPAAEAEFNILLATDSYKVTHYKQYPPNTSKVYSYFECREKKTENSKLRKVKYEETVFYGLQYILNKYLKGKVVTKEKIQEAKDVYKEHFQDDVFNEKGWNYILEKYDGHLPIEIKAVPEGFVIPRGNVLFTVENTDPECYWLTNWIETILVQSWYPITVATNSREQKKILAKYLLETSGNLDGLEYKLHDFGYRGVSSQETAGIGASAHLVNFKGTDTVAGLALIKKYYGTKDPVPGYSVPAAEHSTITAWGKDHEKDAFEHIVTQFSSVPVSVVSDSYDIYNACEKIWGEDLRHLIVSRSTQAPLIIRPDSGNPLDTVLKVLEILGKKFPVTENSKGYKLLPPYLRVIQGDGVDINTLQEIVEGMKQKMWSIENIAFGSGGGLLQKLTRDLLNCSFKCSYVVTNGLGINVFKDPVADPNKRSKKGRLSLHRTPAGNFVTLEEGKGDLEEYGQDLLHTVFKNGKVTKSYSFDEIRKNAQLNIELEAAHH

Compound	IC50 ([1]; NAMPT enzymatic assay)	IC50 ([2]; SRB)	IC50 ([1]; NAMPT enzymatic reaction)	IC50 ([2]; SRB assay)
Cc1ccncc1S(=O)(=O)c1ccc(CNC(=O)c2cnc3[nH]ncc3c2)cc1 [N-{[4-(4-methylpyridine-3-sulfonyl)phenyl]methyl}-1H-pyrazolo[3,4-b]pyridine-5-carboxamide]	100 to 1000 nM	271 nM	–	–
O=C(NCc1ccc(S(=O)(=O)c2ccc(C(F)(F)F)cc2Cl)cc1)c1cnc2nccn2c1	18.4 nM	64.4 nM	–	–
Cc1cccc(S(=O)(=O)c2ccc(CNC(=O)c3ccc4nccn4c3)cc2)c1F	–	3.3 nM	7.5 nM	–
Cc1cc(C)c(S(=O)(=O)c2ccc(CNC(=O)c3cc4ccncc4o3)cc2)c(C)c1	–	100 to 1000 nM	59.2 nM	–
COc1ccc(S(=O)(=O)c2ccc(CNC(=O)c3cc4ccncc4o3)cc2)cc1F	–	6.8 nM	2.2 nM	–
COc1ccc(S(=O)(=O)c2ccc(CNC(=O)c3cnc4nccn4c3)cc2)cc1	–	20.7 nM	2.7 nM	–
O=C(NCc1ccc(S(=O)(=O)c2c(F)cccc2Cl)cc1)c1ccc2nccn2c1	–	76.6 nM	172 nM	–
COc1c(C)cc(S(=O)(=O)c2ccc(CNC(=O)c3ccc4nccn4c3)cc2)cc1C	–	1.4 nM	14.6 nM	–
O=C(NCc1ccc(S(=O)(=O)c2ccccc2OCc2ccccc2)cc1)c1cc2cnccc2[nH]1 [N-[(4-{[2-(benzyloxy)benzene]sulfonyl}phenyl)methyl]-1H-pyrrolo[3,2-c]pyridine-2-carboxamide]	–	–	18 nM	33 nM
CCCOc1cccc(S(=O)(=O)c2ccc(CNC(=O)c3cnc4nccn4c3)cc2)c1	–	7.5 nM	4.8 nM	–
COc1cc(Cl)ccc1S(=O)(=O)c1ccc(CNC(=O)c2cc3ccncc3o2)cc1	–	24.8 nM	8.5 nM	–
O=C(NCc1ccc(S(=O)(=O)c2cc(Cl)cc(CO)c2)cc1)c1ccc2nccn2c1	5.8 nM	1.4 nM	–	–
Cc1nc(C)c(S(=O)(=O)c2ccc(CNC(=O)c3cc4ccncc4s3)cc2)s1 [N-{[4-(dimethyl-1,3-thiazole-5-sulfonyl)phenyl]methyl}thieno[2,3-c]pyridine-2-carboxamide]	1.3 nM	3 nM	–	–
Cc1cc(F)ccc1S(=O)(=O)c1ccc(CNC(=O)c2cc3cnccc3[nH]2)cc1 [N-({4-[(4-fluoro-2-methylbenzene)sulfonyl]phenyl}methyl)-1H-pyrrolo[3,2-c]pyridine-2-carboxamide]	–	–	19 nM	27 nM
COc1cc(S(=O)(=O)c2ccc(CNC(=O)c3cc4cnccc4[nH]3)cc2)ccc1Cl	–	3.6 nM	5.5 nM	–
CCOc1cccc(S(=O)(=O)c2ccc(CNC(=O)c3cc4cnccc4[nH]3)cc2)c1F	–	11.6 nM	31.2 nM	–
COc1ccc(C(C)C)cc1S(=O)(=O)c1ccc(CNC(=O)c2cc3ccncc3o2)cc1	15.4 nM	12.4 nM	–	–
O=C(NCc1ccc(S(=O)(=O)c2ccccc2CN2CCOCC2)cc1)c1cnc2nccn2c1	14.5 nM	100 to 1000 nM	–	–
O=C(NCc1ccc(S(=O)(=O)c2cncc(Cl)c2)cc1)c1cc2cnccc2[nH]1 [N-{[4-(5-chloropyridine-3-sulfonyl)phenyl]methyl}-1H-pyrrolo[3,2-c]pyridine-2-carboxamide]	20 nM	3.6 nM	–	–
Cc1cccc(S(=O)(=O)c2ccc(CNC(=O)c3cc4cnccc4[nH]3)cc2)c1F	–	7 nM	75.8 nM	–
CC(C)c1ccc(S(=O)(=O)c2ccc(CNC(=O)c3ccc4nccn4c3)cc2)cc1 [N-[(4-{[4-(propan-2-yl)benzene]sulfonyl}phenyl)methyl]imidazo[1,2-a]pyridine-6-carboxamide]	14.6 nM	6.66 nM	–	–
O=C(NCc1ccc(S(=O)(=O)c2cc(F)cc(Cl)c2)cc1)c1cc2ccncc2o1	–	3.1 nM	17.8 nM	–
O=C(NCc1ccc(S(=O)(=O)c2ccc(F)c(F)c2)cc1)c1cnc2[nH]ncc2c1	–	28.9 nM	54.2 nM	–
COc1cc(Cl)cc(S(=O)(=O)c2ccc(CNC(=O)c3ccc4nccn4c3)cc2)c1	–	1.5 nM	9.2 nM	–
COc1cc(S(=O)(=O)c2ccc(CNC(=O)c3cnc4[nH]ncc4c3)cc2)ccc1F [N-({4-[(4-fluoro-3-methoxybenzene)sulfonyl]phenyl}methyl)-1H-pyrazolo[3,4-b]pyridine-5-carboxamide]	–	11.5 nM	23.9 nM	–

Compound	IC50 ([1]; NAMPT enzymatic assay)	IC50 ([2]; SRB)	IC50 ([1]; NAMPT enzymatic reaction)	IC50 ([2]; SRB assay)
N#Cc1cccc(S(=O)(=O)c2ccc(CNC(=O)c3cnc4[nH]ncc4c3)cc2)c1 [N-({4-[(3-cyanobenzene)sulfonyl]phenyl}methyl)-1H-pyrazolo[3,4-b]pyridine-5-carboxamide]	–	9.54 nM	18.5 nM	–
O=C(NCc1ccc(S(=O)(=O)c2cccc3c2OCC3)cc1)c1cc2ccncc2s1 [N-{[4-(2,3-dihydro-1-benzofuran-7-sulfonyl)phenyl]methyl}thieno[2,3-c]pyridine-2-carboxamide]	2.2 nM	3 nM	–	–
Cc1cc(C)cc(S(=O)(=O)c2ccc(CNC(=O)c3cnc4nccn4c3)cc2)c1	–	2 nM	1.7 nM	–
CCCCc1ccc(S(=O)(=O)c2ccc(CNC(=O)c3ccc4nccn4c3)cc2)cc1	–	7.6 nM	5.7 nM	–
O=C(NCc1ccc(S(=O)(=O)c2ccc(F)c(OCC(F)(F)F)c2)cc1)c1cc2cnccc2[nH]1	10.3 nM	6.5 nM	–	–
O=C(NCc1ccc(S(=O)(=O)c2cccc(Cl)c2)cc1)c1ccc2nccn2c1 [N-({4-[(3-chlorobenzene)sulfonyl]phenyl}methyl)imidazo[1,2-a]pyridine-6-carboxamide]	–	3.07 nM	9.08 nM	–
O=C(NCc1ccc(S(=O)(=O)c2ccc(F)c(OCC(F)(F)F)c2)cc1)c1cc2ccncc2o1	8.7 nM	25.5 nM	–	–
O=C(NCc1ccc(S(=O)(=O)c2cnc(N3CCCC3)s2)cc1)c1ccc2nccn2c1 [N-({4-[2-(pyrrolidin-1-yl)-1,3-thiazole-5-sulfonyl]phenyl}methyl)imidazo[1,2-a]pyridine-6-carboxamide]	2.4 nM	0.4 nM	–	–
O=C(NCc1ccc(S(=O)(=O)c2ccc(C(F)(F)F)cc2OCC(F)(F)F)cc1)c1cc2cnccc2[nH]1	9 nM	1 nM	–	–
O=C(NCc1ccc(S(=O)(=O)c2cccc(-c3ccccc3)c2)cc1)c1ccc2ncsc2c1 [N-({4-[(3-phenylbenzene)sulfonyl]phenyl}methyl)-1,3-benzothiazole-6-carboxamide]	–	1000 to 10000 nM	18.5 nM	–
O=C(NCc1ccc(S(=O)(=O)c2cc(F)cc(N3CCCC3)c2)cc1)c1cnc2nccn2c1	3.1 nM	2 nM	–	–
COc1cccc(S(=O)(=O)c2ccc(CNC(=O)c3cnc4[nH]ncc4c3)cc2)c1OC [N-({4-[(2,3-dimethoxybenzene)sulfonyl]phenyl}methyl)-1H-pyrazolo[3,4-b]pyridine-5-carboxamide]	–	83.3 nM	123 nM	–
COc1ccc(S(=O)(=O)c2ccc(CNC(=O)c3cc4cnccc4[nH]3)cc2)cc1 [N-({4-[(4-methoxybenzene)sulfonyl]phenyl}methyl)-1H-pyrrolo[3,2-c]pyridine-2-carboxamide]	–	–	11 nM	9 nM
CCN(CC)C(=O)c1cc(F)cc(S(=O)(=O)c2ccc(CNC(=O)c3cc4cnccc4[nH]3)cc2)c1	9.3 nM	3.3 nM	–	–
O=C(NCc1ccc(CCS(=O)(=O)c2ccccc2)cc1)c1cc2cnccc2[nH]1 [N-({4-[2-(benzenesulfonyl)ethyl]phenyl}methyl)-1H-pyrrolo[3,2-c]pyridine-2-carboxamide]	23 nM	166 nM	–	–
COc1cc(-n2cccn2)ccc1S(=O)(=O)c1ccc(CNC(=O)c2ccc3nccn3c2)cc1 [N-[(4-{[2-methoxy-4-(1H-pyrazol-1-yl)benzene]sulfonyl}phenyl)methyl]imidazo[1,2-a]pyridine-6-carboxamide]	21 nM	3.59 nM	–	–
CC(C)NC(=O)c1cc(S(=O)(=O)c2ccc(CNC(=O)c3cnc4[nH]ncc4c3)cc2)ccc1F [N-{[4-({4-fluoro-3-[(propan-2-yl)carbamoyl]benzene}sulfonyl)phenyl]methyl}-1H-pyrazolo[3,4-b]pyridine-5-carboxamide]	85.2 nM	63.1 nM	–	–
CN1CCN(c2ccc(S(=O)(=O)c3ccc(CNC(=O)c4cnc5[nH]ncc5c4)cc3)cc2)CC1	4 nM	1.3 nM	–	–
O=C(NCc1ccc(S(=O)(=O)c2ccc(CO)cc2)cc1)c1cc2ccncc2s1 [N-[(4-{[4-(hydroxymethyl)benzene]sulfonyl}phenyl)methyl]thieno[2,3-c]pyridine-2-carboxamide]	3.8 nM	6.6 nM	–	–
CCOc1cccc(S(=O)(=O)c2ccc(CNC(=O)c3cc4ccncc4o3)cc2)c1 [N-({4-[(3-ethoxybenzene)sulfonyl]phenyl}methyl)furo[2,3-c]pyridine-2-carboxamide]	–	11 nM	6.8 nM	–
O=C(NCc1ccc(S(=O)(=O)c2cccc3c2sc2ccccc23)cc1)c1cc2ccncc2s1	1.4 nM	4.3 nM	–	–
O=C(NCc1ccc(S(=O)(=O)c2cccc3c2Oc2ccccc2S3)cc1)c1cnc2nccn2c1 [N-{[4-(phenoxathiine-4-sulfonyl)phenyl]methyl}imidazo[1,2-a]pyrimidine-6-carboxamide]	2.1 nM	4.2 nM	–	–
O=C(NCc1ccc(S(=O)(=O)c2ccccc2)cc1)c1cnc2[nH]ncc2c1 [N-{[4-(benzenesulfonyl)phenyl]methyl}-1H-pyrazolo[3,4-b]pyridine-5-carboxamide]	–	–	70 nM	51 nM
O=C(NCc1ccc(S(=O)(=O)N2CCCCC2)cc1)c1cc2cnccc2s1 [N-{[4-(piperidine-1-sulfonyl)phenyl]methyl}thieno[3,2-c]pyridine-2-carboxamide]	–	–	886 nM	10000 nM
